Data set [1] relates to mice. The note with it: cited from earlier work; for effect on 1-hour food intake: augmentation of salivary peptide; for reduction of caloric intake as compared to controls / caloric intake: mice; for reduction of caloric intake as compared to controls: salivary augmentation; for caloric intake: vehicle 4.10±0.04 kcal.
In data set [2] the test system is subjects with BMIs of 30 to 40 kg/m^2. Description: Dose-escalation clinical trial, feeling of fullness assessed by VAS after lunch. Type of data set: in vivo, human. The method, then: An exemplary clinical trial was performed as a dose-escalation design trial. Approximately twelve evaluable subjects (n˜12) with BMIs of 30 to 40 kg/m^2 received a single dose of placebo followed by study drug (PYY(3-36) also known as GT-001) applied directly to the surface of the lingual mucosa with a disposable pipette followed by a one-day washout. A total of seven (7) doses was escalated to a dose of 2.5 mg/ml.
The dose can be prepared, for example, from a stock solution of 2.5 mg/ml PYY(3-36).
Subjects who complete all screening procedures and meet all inclusion and exclusion criteria described within the protocol and found to be eligible for study enrollment checked into the Study Unit (i.e., the study facility). The morning of the study, participants fasted prior to arriving at the SU. Participants fasted for at least 12 hours prior to Day 1 of the study. Participants were permitted to only drink water prior to arrival to SU and were able to brush their teeth. The following assessments and measurements were taken: • (1) Inspection of the lingual mucosa. • (2) Updating medical and medication history prior to placebo application. • (3) Assessing health status. If participant has either rhinitis or gastrointestinal distress, the participant will be discontinued for that day. • (4) Measuring body weight and BMI. • (5) Measuring vital signs (BP, HR, and body temperature). BP and HR were measured twice in the sitting position and twice in the standing position. If BP was high at baseline sitting (>160 systolic), BP was re-checked after participant was sitting for 5-10 min. Body temperature was measured once. • (6) Performing urine drug screen, urine cotinine test, alcohol breath test, and urine pregnancy test. • (7) Subjects provided a 325-400 calorie breakfast and calorie intake was recorded. • (8) Water was provided “ad-libitum” and volume recorded. • (9) Four (4) hours post breakfast, the VAS for Appetite and Satiety was performed. • (10) Inserting a cannula to obtain blood samples, obtaining a 5 ml blood sample, and screening for anti-GT-001 antibodies. • (11) Obtaining a fasting PK blood sample #1 (5 ml) 15 minutes prior to placebo. • (12) Performing a water mouthwash prior to dosing with GT-001. The mouthwash can be a rinse with 20 ml of water. • (13) Giving one milliliter (1 ml) of placebo (formulation without GT-001) to the participant to the tongue via pipette 5 minutes before lunch. • (14) The solution remained on the tongue for 1 minute followed by asking participants to swish and then swallow. • (15) Completing a VAS for like-lines (VAS completed by subjects). • (16) Collecting PK blood samples after each of seven doses at ±1 minute at 5, 10, 15, 30, and ±5 minutes at 60, 120, and 240 minutes post dose. • (17) Isolating subjects from other subjects during lunch. • (18) Provided a “ad-libitum” lunch (composed of a casserole, nutrient drink and two (2) cookies) and recording calorie intake. • (19) Having subjects complete VAS questionnaire for sweetness, sourness, bitterness, saltiness, umami, and fat taste 20 minutes after completing the meals. • (20) Recording VAS for appetite and satiety every 30 minutes for 2 hours after completing the meal. • (21) Discharging subjects. Subjects ate “at-libitum” until the 12-hour fasting period preceding the next study visit. • (22) During the SU visit, subjects were restricted from ingesting gum, candy, tobacco, carbonated drinks, and from performing exercise. During the meal, subjects were not exposed to food cues (visual, odor, or hearing) and they should eat in isolation.
Days 2, 4, 6, 8, 10, 12 and 14 treatment days are the same as day 1.
The following exemplary VAS Assessment was given to subjects to assess their feeling of fullness before and after receiving PYY(3-36) or placebo and before or after eating at various doses described herein. […]

Data set [3] is described as follows: PYY concentration in plasma after lingual administration followed by lunch. The note with it: 0.25 mg/ml and 2.5 mg/ml, each followed by lunch; up to 4 hours after administration. It counts as in vivo, human. The method, then:
As shown, administering the placebo followed by food consumption induces the known and expected endogenous production of PYY resulting from food consumption peaking at approximately 20 pg/ml above pre-dose levels at 1-2 hours post-administration.
Subjects who complete all screening procedures and meet all inclusion and exclusion criteria described within the protocol and found to be eligible for study enrollment checked into the Study Unit (i.e., the study facility). The morning of the study, participants fasted prior to arriving at the SU. Participants fasted for at least 12 hours prior to Day 1 of the study. […] BP and HR were measured twice in the sitting position and twice in the standing position. […] Body temperature was measured once. • (6) Performing urine drug screen, urine cotinine test, alcohol breath test, and urine pregnancy test. • (7) Subjects provided a 325-400 calorie breakfast and calorie intake was recorded. • (8) Water was provided “ad-libitum” and volume recorded. • (9) Four (4) hours post breakfast, the VAS for Appetite and Satiety was performed. • (10) Inserting a cannula to obtain blood samples, obtaining a 5 ml blood sample, and screening for anti-GT-001 antibodies. • (11) Obtaining a fasting PK blood sample #1 (5 ml) 15 minutes prior to placebo. • (12) Performing a water mouthwash prior to dosing with GT-001. […]

In data set [4] the test system is rodents. The note with it: augmentation of salivary PYY(3-36); cited from earlier work.

Like-named read-outs stand apart in the source and are kept apart here. No end group written: not given here.

For the substance neuropeptide Y [reference compound], the “effect on 1-hour food intake” value in data set [1] was “no effect”.

Consider PYY(3-36), for which the “feeling of fullness, VAS score (FIG. 1)” value in data set [2] (dose 25 ng applied to the tongue, 120 minutes post-lunch, 12 subjects, significantly above placebo level) is recorded as 7; in data set [2] (dose 2.5 μg applied to the tongue, post-lunch, 12 subjects), “increases”. Moreover, the “feeling of fullness, VAS score (FIG. 2)” value in data set [2] (dose 25 ng, up to 60 minutes post-lunch) is “about 8”; in data set [2] (dose 25 μg, maintained out to 120 minutes post-lunch), 8; in data set [2] (dose 250 μg, maintained out to 120 minutes post-lunch) it was 8. Besides, the “feeling of fullness, VAS scale (FIG. 1)” value in data set [2] (dose 250 μg applied to the tongue, post-lunch, 12 subjects) is “about 8”. The “level of PYY in plasma versus placebo/meal combination (FIG. 3)” value in data set [3] is “does not raise the level of PYY in plasma above levels induced by the placebo/meal combination”. In addition, the “effect on 1-hour food intake” value in data set [1] was “decrease”. Moreover, the “reduction of caloric intake as compared to controls” value in data set [1] (0.3 μg/100 g) is on record as 16%; in data set [1] (3 μg/100 g) it was 26%; in data set [1] (10 μg/100 g), 42%. Also, the caloric intake in data set [1] (0.3 μg/100 g, p=0.01) is 3.44 ± 0.06 kcal; in data set [1] (3 μg/100 g, p=0.008) it was 3.01 ± 0.06 kcal; in data set [1] (10 μg/100 g, p=1.81E-06) it was 2.36 ± 0.05 kcal. In data set [4], the taste aversion result is listed as “does not cause taste aversion”.

Take “amylin (KCNTATCATQRLANFLVHSSNNFGAILSSTNVGSNTY; not fully specified (C-terminus, bridges); cysteine pairing not given here; UniProt P10997 34-70, looked up) [peptide tested by salivary augmentation for comparison, reference compound]”: in data set [1], the “effect on 1-hour food intake” value was “no effect”.

These data come from patent US11911445B2, “Peptide YY pharmaceutical formulations, compositions, and methods” (Gila Therapeutics, Inc., priority 2018, dated 2024).
